Assays:
[1] = tested on: chickweed; assay: Test Example 5: herbicidal effect by foliage application, plastic box (Table 20, symbol P); type: in vivo, common chickweed (Stellaria media); conditions: foliage application, 320 g/ha, three weeks after application
Procedure, shortened: (§1)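 Sow seeds spot-wise in sterilized diluvial soil; cover with ~1.5 cm soil. Grow 14 days in greenhouse, 25° C. to 30° C. Spray foliage with emulsion diluted to predetermined amount. Rate effect after 3 weeks.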

[2] = tested on: windgrass; assay: Test Example 4: herbicidal effect by soil treatment (Table 19, symbol L); type: in vivo, windgrass (Apera spica-venti); conditions: amount of applied herbicide 320 g/ha
Procedure, shortened: (§2)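 Applied as a water-diluted emulsion, the compound was sprayed onto soil covering newly sown seeds. Evaluation came three weeks after application, in a greenhouse held at 25° C. to 30° C.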

[3] = tested on: lambsquarters; assay: Test Example 4: herbicidal effect by soil treatment (Table 19, symbol O); type: in vivo, lambsquarters (Chenopodium album); conditions: amount of applied herbicide 320 g/ha
Procedure, shortened: as §2

[4] = tested on: oval-leafed pondweed; assay: Test Example 2: herbicidal activity, application during weed generation under submerged conditions (Table 17, symbol C); type: in vivo, oval-leafed pondweed (Monochoria vaginalis); conditions: AAH 320 g/ha; application during weed generation, submerged conditions
Procedure, shortened: (§3)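 Herbicide emulsion, diluted with water to the chosen amount, is applied onto 4 cm floodwater over alluvial soil where the weeds were co-sown and raised at 25–30° C. Application timing: 1–2 leaves. Assessment: three weeks afterwards.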

[5] = tested on: wild oat; assay: Test Example 5: herbicidal effect by foliage application, plastic box (Table 20, symbol I); type: in vivo, wild oat (Avena fatua); conditions: foliage application, 320 g/ha, three weeks after application
Procedure, shortened: as §1

[6] = tested on: persian speedwell; assay: Test Example 4: herbicidal effect by soil treatment (Table 19, symbol R); type: in vivo, Persian speedwell (Veronica persica); conditions: amount of applied herbicide 320 g/ha
Procedure, shortened: as §2

[7] = tested on: wild oat; assay: Test Example 4: herbicidal effect by soil treatment (Table 19, symbol I); type: in vivo, wild oat (Avena fatua); conditions: amount of applied herbicide 320 g/ha
Procedure, shortened: as §2

[8] = tested on: oval-leafed pondweed; assay: Test Example 1: herbicidal activity, application before weed generation under submerged conditions (Table 16, symbol C); type: in vivo, oval-leafed pondweed (Monochoria vaginalis); conditions: amount of applied herbicide 320 g/ha
Procedure, shortened: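 Emulsion formulation, water-diluted to set dose, was put onto the flooded surface (4 cm depth, alluvial soil) the same day weeds were sown and 2.5-leaf rice transplanted. After 3 weeks at 25-30 °C under glass, each species was rated 0 (≤5% kill) to 5 (≥90% kill).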

[9] = tested on: southern crabgrass; assay: Test Example 5: herbicidal effect by foliage application, plastic box (Table 20, symbol F); type: in vivo, southern crabgrass (Digitaria ciliaris); conditions: foliage application, 320 g/ha, three weeks after application
Procedure, shortened: as §1

[10] = tested on: velvetleaf; assay: Test Example 4: herbicidal effect by soil treatment (Table 19, symbol M); type: in vivo, velvetleaf (Abutilon theophrasti); conditions: amount of applied herbicide 320 g/ha
Procedure, shortened: as §2

[11] = tested on: barnyard grass; assay: Test Example 4: herbicidal effect by soil treatment (Table 19, symbol H); type: in vivo, barnyard grass (Echinochloa crus-galli); conditions: amount of applied herbicide 320 g/ha
Procedure, shortened: as §2

[12] = tested on: chickweed; assay: Test Example 4: herbicidal effect by soil treatment (Table 19, symbol P); type: in vivo, common chickweed (Stellaria media); conditions: amount of applied herbicide 320 g/ha
Procedure, shortened: as §2

[13] = tested on: Italian ryegrass; assay: Test Example 4: herbicidal effect by soil treatment (Table 19, symbol K); type: in vivo, Italian ryegrass (Lolium multiflorum); conditions: amount of applied herbicide 320 g/ha
Procedure, shortened: as §2

[14] = tested on: Japanese bulrush; assay: Test Example 2: herbicidal activity, application during weed generation under submerged conditions (Table 17, symbol B); type: in vivo, Japanese bulrush (Schoenoplectus juncoides); conditions: AAH 320 g/ha; application during weed generation, submerged conditions
Procedure, shortened: as §3

[15] = tested on: late watergrass; assay: Test Example 2: herbicidal activity, application during weed generation under submerged conditions (Table 17, symbol A); type: in vivo, late watergrass (Echinochloa oryzicola); conditions: AAH 320 g/ha; application during weed generation, submerged conditions
Procedure, shortened: as §3

SMILES | P: chickweed, herbicidal effect grade [1] | herbicidal effect rating, C: oval-leafed pondweed [4] | I: wild oat, herbicidal effect grade [5] | Herbicidal effect, C: oval-leafed pondweed [8] | F: southern crabgrass, herbicidal effect grade [9] | herbicidal effect rating, B: Japanese bulrush [14] | herbicidal effect rating, A: late watergrass [15] | L: windgrass, herbicidal effect grade [2] | O: lambsquarters, herbicidal effect grade [3] | R: persian speedwell, herbicidal effect grade [6] | I: wild oat, herbicidal effect grade [7] | M: velvetleaf, herbicidal effect grade [10] | H: barnyard grass, herbicidal effect grade [11] | P: chickweed, herbicidal effect grade [12] | K: Italian ryegrass, herbicidal effect grade [13] | herbicidal effect on wild oat (I) [5] | herbicidal effect on southern crabgrass (F) [9] | also measured
COc1ccccc1-c1sc2cc(F)ccc2c1-c1c(OC(=O)c2ccco2)c(C)nn(C)c1=O [3-023] | 5 (Herbicidal rate of 90% or more (almost completely withered)) | 4 (Herbicidal rate of 70% or more and less than 90%) | 4 (Herbicidal rate of 70% or more and less than 90%) | 4 (Herbicidal rate of 70% or more and less than 90%) | 3 (Herbicidal rate of 40% or more and less than 70%) | 2 (Herbicidal rate of 20% or more and less than 40%) | 2 (Herbicidal rate of 20% or more and less than 40%) |  |  |  |  |  |  |  |  |  |  | herbicidal effect, L: windgrass [2]: 3 (Herbicidal rate of 40% or more and less than 70%); herbicidal effect, O: lambsquarters [3]: 2 (Herbicidal rate of 20% or more and less than 40%); herbicidal effect, R: persian speedwell [6]: 4 (Herbicidal rate of 70% or more and less than 90%); herbicidal effect, I: wild oat [7]: 0 (Herbicidal rate of 5% or less (almost no effect)); herbicidal effect, M: velvetleaf [10]: 0 (Herbicidal rate of 5% or less (almost no effect)); herbicidal effect, H: barnyard grass [11]: 4 (Herbicidal rate of 70% or more and less than 90%); herbicidal effect, P: chickweed [12]: 4 (Herbicidal rate of 70% or more and less than 90%); herbicidal effect, K: Italian ryegrass [13]: 5 (Herbicidal rate of 90% or more (almost completely withered))
COc1ccccc1-c1sc2cc(F)ccc2c1-c1c(OS(=O)(=O)c2ccc(C)cc2)c(C)nn(C)c1=O [3-027] | 3 (Herbicidal rate of 40% or more and less than 70%) | 3 (Herbicidal rate of 40% or more and less than 70%) | 3 (Herbicidal rate of 40% or more and less than 70%) | 5 (Herbicidal rate of 90% or more (almost completely withered)) | 3 (Herbicidal rate of 40% or more and less than 70%) | 2 (Herbicidal rate of 20% or more and less than 40%) | 3 (Herbicidal rate of 40% or more and less than 70%) | 0 (Herbicidal rate of 5% or less (almost no effect)) | 0 (Herbicidal rate of 5% or less (almost no effect)) | 0 (Herbicidal rate of 5% or less (almost no effect)) | 0 (Herbicidal rate of 5% or less (almost no effect)) | 0 (Herbicidal rate of 5% or less (almost no effect)) | 0 (Herbicidal rate of 5% or less (almost no effect)) | 0 (Herbicidal rate of 5% or less (almost no effect)) | 0 (Herbicidal rate of 5% or less (almost no effect)) |  |  | 
CCOc1ccccc1-c1sc2c(Cl)c(OCC)ccc2c1-c1c(O)c(C)nn(C)c1=O [7-004] |  | 2 (Herbicidal rate of 20% or more and less than 40%) |  | 0 (Herbicidal rate of 5% or less (almost no effect)) |  | 3 (Herbicidal rate of 40% or more and less than 70%) | 3 (Herbicidal rate of 40% or more and less than 70%) | 0 (Herbicidal rate of 5% or less (almost no effect)) | 4 (Herbicidal rate of 70% or more and less than 90%) | 5 (Herbicidal rate of 90% or more (almost completely withered)) | 0 (Herbicidal rate of 5% or less (almost no effect)) | 3 (Herbicidal rate of 40% or more and less than 70%) | 3 (Herbicidal rate of 40% or more and less than 70%) | 4 (Herbicidal rate of 70% or more and less than 90%) | 4 (Herbicidal rate of 70% or more and less than 90%) | 0 (Herbicidal rate of 5% or less (almost no effect)) | 5 (Herbicidal rate of 90% or more (almost completely withered)) | 
Cc1nn(C)c(=O)c(-c2c(-c3ccc(OCC(F)(F)F)cc3)oc3ccccc23)c1O [8-005] |  | 3 (Herbicidal rate of 40% or more and less than 70%) |  | 4 (Herbicidal rate of 70% or more and less than 90%) |  | 3 (Herbicidal rate of 40% or more and less than 70%) | 4 (Herbicidal rate of 70% or more and less than 90%) | 0 (Herbicidal rate of 5% or less (almost no effect)) | 4 (Herbicidal rate of 70% or more and less than 90%) | 4 (Herbicidal rate of 70% or more and less than 90%) | 0 (Herbicidal rate of 5% or less (almost no effect)) | 3 (Herbicidal rate of 40% or more and less than 70%) | 5 (Herbicidal rate of 90% or more (almost completely withered)) | 2 (Herbicidal rate of 20% or more and less than 40%) | 5 (Herbicidal rate of 90% or more (almost completely withered)) | 0 (Herbicidal rate of 5% or less (almost no effect)) | 5 (Herbicidal rate of 90% or more (almost completely withered)) | 
CSCCOc1ccc(-c2oc3ccccc3c2-c2c(O)c(C)nn(C)c2=O)cc1 [8-008] |  | 2 (Herbicidal rate of 20% or more and less than 40%) |  | 4 (Herbicidal rate of 70% or more and less than 90%) |  | 3 (Herbicidal rate of 40% or more and less than 70%) | 2 (Herbicidal rate of 20% or more and less than 40%) | 0 (Herbicidal rate of 5% or less (almost no effect)) | 4 (Herbicidal rate of 70% or more and less than 90%) | 5 (Herbicidal rate of 90% or more (almost completely withered)) | 0 (Herbicidal rate of 5% or less (almost no effect)) | 2 (Herbicidal rate of 20% or more and less than 40%) | 5 (Herbicidal rate of 90% or more (almost completely withered)) | 5 (Herbicidal rate of 90% or more (almost completely withered)) | 4 (Herbicidal rate of 70% or more and less than 90%) | 5 (Herbicidal rate of 90% or more (almost completely withered)) | 5 (Herbicidal rate of 90% or more (almost completely withered)) | 
COc1ccccc1-c1sc2c(Cl)c(OC)ccc2c1-c1c(O)c(C)nn(C)c1=O [Compound No. 7-001, 4-(7-chloro-6-methoxy-2-(2-methoxyphenyl)benzo[b]thiophen-3-yl)-5-hydroxy-2,6-dimeth ylpyridazin-3-(2H)-one] |  | 3 (Herbicidal rate of 40% or more and less than 70%) |  | 2 (Herbicidal rate of 20% or more and less than 40%) |  | 3 (Herbicidal rate of 40% or more and less than 70%) | 3 (Herbicidal rate of 40% or more and less than 70%) | 0 (Herbicidal rate of 5% or less (almost no effect)) | 5 (Herbicidal rate of 90% or more (almost completely withered)) | 5 (Herbicidal rate of 90% or more (almost completely withered)) | 0 (Herbicidal rate of 5% or less (almost no effect)) | 3 (Herbicidal rate of 40% or more and less than 70%) | 3 (Herbicidal rate of 40% or more and less than 70%) | 5 (Herbicidal rate of 90% or more (almost completely withered)) | 3 (Herbicidal rate of 40% or more and less than 70%) | 0 (Herbicidal rate of 5% or less (almost no effect)) | 0 (Herbicidal rate of 5% or less (almost no effect)) | 

Source: patent publication US20230085307A1, “PYRIDAZINONE COMPOUND AND HERBICIDE” (NISSAN CHEMICAL CORPORATION, priority 2019, published 2023)
